Experimental data reported in ChEMBL document CHEMBL5154637, “Peptidomimetic α-Acyloxymethylketone Warheads with Six-Membered Lactam P1 Glutamine Mimic: SARS-CoV-2 3CL Protease Inhibition, Coronavirus Antiviral Activity, and in Vitro Biological Stability” (J Med Chem, 2022).

Legend:
[1] = Selectivity index, ratio of CC50 for cytotoxicity against African green monkey VeroE6 cells assessed as reduction in cell viability to EC50 for antiviral activity against SARS-CoV-2 3CL protease; type: toxicity, cell-based
[2] = Antiviral activity against Human coronavirus OC43 infected in human Huh-7 cells assessed as reduction in virus-induced cytopathic effect incubated for 7 days by Celltiter-Glo assay; type: functional, cell-based; details: Betacoronavirus 1, OC43, Huh-7, 168 h
[3] = Selectivity index, ratio of CC50 for cytotoxicity against human A549 cells assessed as reduction in cell viability to EC50 for antiviral activity against SARS-CoV-2 3CL protease; type: toxicity, cell-based; details: read-out: Ratio CC50/EC50
[4] = Cytotoxicity against human MRC5 cells assessed as reduction in cell viability incubated for 24 hrs by Celltiter-glo luminescent cell viability assay; type: toxicity, cell-based
[5] = Cytotoxicity against human Huh-7 cells assessed as reduction in cell viability incubated for 24 hrs by Celltiter-glo luminescent cell viability assay; type: toxicity, cell-based
Human coronavirus 229E = assay: Antiviral activity against Human coronavirus 229E infected in human MRC5 cells assessed as reduction in virus-induced cytopathic effect incubated for 3 days by Celltiter-Glo assay; type: functional, organism-based; details: MRC5, 72 h
[6] = Stability in CD-1 mouse plasma assessed as half life at 2 uM measured upto 120 mins by LC-MS/MS analysis; type: ADME, cell-free
[7] = Microsomal stability in CD-1 mouse liver microsomes assessed as half life at 1 uM measured upto 60 mins in presence of NADPH by LC-MS/MS analysis; type: ADME, Microsome; details: for half-life at 1 µM: CD-1, mouse, liver microsomes; for Stability: mouse, microsomes, 1 h, 1 µM
[8] = Metabolic stability in CD-1 mouse Hepatocytes assessed as half life at 3 uM measured upto 90 mins by LC-MS/MS analysis; type: ADME, cell-based, Hepatocyte; details: for half-life at 3 µM: CD-1, mouse
[9] = Efflux ratio of apparent permeability across basal to apical membrane over apical to basal membrane in human Caco-2 cells at 2 uM with pH 7.4 incubated for 2 hrs by LC-MS analysis; type: ADME, cell-based; details: caco-2, pH 7.4, 2 h
[10] = Lipophilicity, log D of the compound at phosphate buffer pH 7.4 by shake flask method based LC-MS/MS analysis; type: physicochemical
[11] = Metabolic stability in human plasma measured at 2 hrs by LC-MS analysis; type: ADME, cell-free; details: read-out: Stability
Cathepsin B [12] = target: T1, Cathepsin B (Homo sapiens, UniProt P07858); assay: Inhibition of human cathepsin B at 1 uM incubated for 30 mins by fluorometric analysis
Cathepsin S [13] = target: T2, Cathepsin S (Homo sapiens, UniProt P25774); assay: Inhibition of human cathepsin S at 1 uM incubated for 30 mins by fluorometric analysis
Target sequence in this assay (P25774 115-331 limits assumed): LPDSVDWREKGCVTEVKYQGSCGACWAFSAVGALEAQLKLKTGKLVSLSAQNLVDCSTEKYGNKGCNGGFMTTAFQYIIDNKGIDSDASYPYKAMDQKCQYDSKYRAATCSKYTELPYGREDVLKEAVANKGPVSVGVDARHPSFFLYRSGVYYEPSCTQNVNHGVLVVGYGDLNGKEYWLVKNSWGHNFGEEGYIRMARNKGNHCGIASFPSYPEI

[14] = Dissociation constant, pKa of the compound; type: physicochemical
[15] = Stability of compound in glutathione at pH 7.4 after 24 hrs by LC-MS analysis; type: physicochemical; details: read-out: Stability
[16] = Apparent permeability from basolateral to apical side in human Caco-2 cells at 2 uM with pH 7.4 incubated for 2 hrs by LC-MS analysis; type: ADME, cell-based; details: for Papp B→A at 2 h, 2 µM: Caco-2, pH 7.4; for permeability: caco-2, pH 7.4, 2 h, 2 µM
in vitro [17] = details: chlorocebus sabaeus, Vero E6 cells
in vitro [18] = details: human, A549 cells
SARS-CoV-2 = assay: microbe, parasite or virus in culture; details: Severe acute respiratory syndrome coronavirus 2, Vero C1008, 48 h
[19] = Metabolic stability in human plasma assessed as half life measured upto 2 hrs by LC-MS analysis; type: ADME, cell-free
Cathepsin S [20] = target: T2, Cathepsin S; assay: Inhibition of human cathepsin S incubated for 30 mins by fluorometric analysis
Target sequence in this assay (P25774 whole entry): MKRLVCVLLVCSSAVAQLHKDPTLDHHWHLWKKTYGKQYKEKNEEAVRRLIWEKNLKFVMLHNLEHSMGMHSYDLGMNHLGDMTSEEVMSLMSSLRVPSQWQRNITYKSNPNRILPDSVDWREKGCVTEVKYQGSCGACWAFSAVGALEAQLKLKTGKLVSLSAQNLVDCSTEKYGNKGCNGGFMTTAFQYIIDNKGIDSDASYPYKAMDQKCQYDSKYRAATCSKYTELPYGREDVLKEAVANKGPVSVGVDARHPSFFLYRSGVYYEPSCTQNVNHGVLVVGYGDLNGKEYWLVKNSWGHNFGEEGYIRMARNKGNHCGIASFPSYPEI

[21] = target: Replicase polyprotein 1ab (Severe acute respiratory syndrome coronavirus 2, UniProt P0DTD1); assay: Inhibition of SARS-CoV-2 3CL protease incubated for 30 mins by FRET assay
Cathepsin B [22] = target: T1, Cathepsin B; assay: Inhibition of human cathepsin B incubated for 30 mins by fluorometric analysis
[23] = Metabolic stability in CD-1 mouse liver microsomes assessed as half life at 1 uM measured upto 60 mins in absence of NADPH by LC-MS/MS analysis; type: ADME, Microsome

Row | SMILES | EC50 [2] | CC50 at 24 h [4] | CC50 at 24 h [5] | EC50 (Human coronavirus 229E) | half-life at 2 µM [6] | half-life at 3 µM [8] | logD [10] | remaining at 2 h [11] | inhibition (Cathepsin B [12]) | inhibition (Cathepsin S [13]) | pKa [14] | CC50 at 24 h (in vitro [17]) | CC50 at 24 h (in vitro [18]) | EC50 (SARS-CoV-2) | IC50 [21] | further results
1 | COc1cccc2[nH]c(C(=O)N[C@@H](CC(C)C)C(=O)N[C@@H](C[C@@H]3CCCNC3=O)C(=O)COC(=O)c3c(C(F)(F)F)cc(C)nc3C)cc12 | 45 nM | > 100000 nM | 67600 nM | 30 nM | > 289 min | 1.9 min | 4.11 | 99% | 95% | 98.4% | 1.7 | > 200000 nM | > 200000 nM | 470 nM |  | selectivity ratio ([1]; read-out: Ratio): > 426; selectivity ratio [3]: > 426; half-life at 1 µM [7]: 1 min; Ratio [9]: 1146; remaining at 24 h [15]: > 80%; Papp B→A at 2 h, 2 µM [16]: 28.9 ×10⁻⁶ cm/s
2 | COc1cccc2[nH]c(C(=O)N[C@@H](CC(C)C)C(=O)N[C@@H](C[C@@H]3CCCNC3=O)C(=O)COC(=O)C(C)(C)C#N)cc12 |  |  |  |  |  |  |  | 0% |  |  | 2.4 |  |  | > 10000 nM |  | half-life [19]: < 15 min
3 | COc1cccc2[nH]c(C(=O)N[C@@H](CC(C)C)C(=O)N[C@@H](C[C@@H]3CCCNC3=O)C(=O)COC(=O)c3c(C)cc(C)nc3C)cc12 | 54 nM | > 100000 nM | > 100000 nM | 48 nM | > 289 min | 2.7 min | 4.41 | 100% | 86.7% | 98.1% | 1.7 | > 200000 nM | > 200000 nM |  | 19 nM | IC50 (Cathepsin S [20]): 51.5 nM; half-life at 1 µM [7]: 1.1 min; IC50 (Cathepsin B [22]): 201 nM; remaining at 24 h [15]: > 80%; Papp B→A at 2 h, 2 µM [16]: 21.8 ×10⁻⁶ cm/s
4 | COc1cccc2[nH]c(C(=O)N[C@@H](CC(C)C)C(=O)N[C@@H](C[C@@H]3CCCNC3=O)C(=O)COC(=O)c3ccncc3)cc12 |  |  |  |  |  |  |  |  |  |  | 1.77 |  |  | > 10000 nM | 32.9 nM | 
5 | COc1cccc2[nH]c(C(=O)N[C@@H](CC(C)C)C(=O)N[C@@H](C[C@@H]3CCCNC3=O)C(=O)COC(=O)C(C)(C)C)cc12 |  |  |  |  |  |  |  | 100% |  |  | 5.03 |  |  | > 10000 nM |  | 
6 | O=C[C@H](C[C@@H]1CCNC1=O)NC(=O)[C@H](CC1CCCCC1)NC(=O)OCc1cccc(Cl)c1 |  |  |  |  |  |  |  |  | 72.5% | 99.3% |  |  |  |  |  | 
7 | COc1cccc2[nH]c(C(=O)N[C@@H](CC(C)C)C(=O)N[C@@H](C[C@@H]3CCCNC3=O)C(=O)COC(=O)c3c(C(F)(F)F)cccc3C(F)(F)F)cc12 | 47 nM | > 100000 nM | 94600 nM | 29 nM |  |  |  | 100% | 91.3% | 96.8% | 1.9 | > 200000 nM | > 200000 nM | 160 nM |  | selectivity ratio ([1]; read-out: Ratio CC50/EC50): > 1250; IC50 (Cathepsin S [20]): 116 nM; selectivity ratio [3]: > 1250; IC50 (Cathepsin B [22]): 464 nM
8 | COc1cccc2[nH]c(C(=O)N[C@@H](CC(C)C)C(=O)N[C@@H](C[C@@H]3CCCNC3=O)C(=O)COC(=O)C3(C)OCCCO3)cc12 |  |  |  |  |  |  |  |  |  |  | 2.7 |  |  | > 10000 nM | 12.5 nM | 
9 | COc1cccc2[nH]c(C(=O)N[C@@H](CC(C)C)C(=O)N[C@@H](C[C@@H]3CCCNC3=O)C(=O)COC(=O)c3c(Cl)cccc3Cl)cc12 | 35 nM | > 100000 nM | > 100000 nM | 21 nM | 170 min | 2.3 min | > 5.07 |  |  |  | 1.26 | > 200000 nM | > 200000 nM |  |  | Stability [7]: Unstable; half-life at 1 µM ([23]; CD-1, mouse, liver microsomes): < 180 min; permeability [16]: Impermeable
10 | COc1cccc2[nH]c(C(=O)N[C@@H](CC(C)C)C(=O)N[C@@H](C[C@@H]3CCCNC3=O)C(=O)COC(=O)C(C)(C)C(F)(F)F)cc12 | 195 nM | > 100000 nM | 94600 nM | 112 nM | 11.6 min |  | 4.89 | 25% |  |  | 3.2 | > 200000 nM | > 200000 nM | > 5000 nM |  | Stability [7]: Unstable; Stability ([8]; mouse, 1.5 h, 3 µM): Unstable; half-life [19]: 67 min; Stability ([23]; mouse, microsomes, 1 h, 1 µM): Unstable; permeability [16]: Impermeable
